Reference: patent US20260217708A1, “FUSED BENZAZEPINE DERIVATIVES FOR USE IN THE TREATMENT OF CANCER AND EPILEPSY” (UCB BIOPHARMA SRL, priority 2023, published 2026)

Assays:
system Xc^− [1] = biological target: T1, system Xc^− (Homo sapiens, UniProt Q9UPY5); assay: [^14C]L-Cystine uptake assay; type: cell-based; design: endogenous in cells; host or cells: H4 cells; conditions: H4 cells, sodium-free HEPES buffer, 0.5 μM L-[14C]Cystine and 4.5 μM L-Cystine, 1 hour at 37° C.; read-out: pIC50 [^14C] L-Cystine uptake assay (converted)
T1 sequence (Q9UPY5 1-501): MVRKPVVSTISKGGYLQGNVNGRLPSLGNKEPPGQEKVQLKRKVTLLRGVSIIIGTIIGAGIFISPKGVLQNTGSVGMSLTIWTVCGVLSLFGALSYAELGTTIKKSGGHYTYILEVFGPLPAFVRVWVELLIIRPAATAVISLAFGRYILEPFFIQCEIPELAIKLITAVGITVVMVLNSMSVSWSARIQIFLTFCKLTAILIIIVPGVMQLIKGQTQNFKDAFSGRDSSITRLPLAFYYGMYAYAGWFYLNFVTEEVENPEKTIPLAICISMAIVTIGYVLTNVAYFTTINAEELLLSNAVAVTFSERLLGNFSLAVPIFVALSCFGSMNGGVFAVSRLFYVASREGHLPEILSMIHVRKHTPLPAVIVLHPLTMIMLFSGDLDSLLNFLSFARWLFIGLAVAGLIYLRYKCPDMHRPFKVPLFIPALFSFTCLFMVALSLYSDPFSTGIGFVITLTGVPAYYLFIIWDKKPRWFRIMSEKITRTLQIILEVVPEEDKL
T1 sequence (P08195 1-529 partner): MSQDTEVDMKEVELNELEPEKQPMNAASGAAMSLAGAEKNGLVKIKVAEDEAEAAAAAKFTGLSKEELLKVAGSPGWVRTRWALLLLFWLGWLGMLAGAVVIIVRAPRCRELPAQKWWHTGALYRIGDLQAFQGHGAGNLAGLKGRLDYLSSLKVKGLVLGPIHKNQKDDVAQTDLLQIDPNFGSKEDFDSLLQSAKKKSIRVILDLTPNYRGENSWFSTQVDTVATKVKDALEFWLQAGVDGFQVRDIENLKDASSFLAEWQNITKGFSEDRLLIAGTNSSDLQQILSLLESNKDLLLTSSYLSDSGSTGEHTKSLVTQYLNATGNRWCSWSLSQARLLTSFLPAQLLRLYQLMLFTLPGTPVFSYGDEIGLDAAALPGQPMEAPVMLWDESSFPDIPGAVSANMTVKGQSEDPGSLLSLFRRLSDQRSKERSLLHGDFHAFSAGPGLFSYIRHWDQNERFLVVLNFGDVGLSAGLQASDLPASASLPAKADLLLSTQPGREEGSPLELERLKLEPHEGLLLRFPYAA
Outline: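 Compound effect is given as pIC50, taken between controls of 1% DMSO and 50 μM Erastin. Human H4 cells were pretreated 15 min with compound in sodium-free buffer, then took up 0.5 μM [14C]cystine with 4.5 μM cold cystine for 1 hour at 37° C, read by scintillation proximity counting.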

system Xc^− [2] = biological target: T1, system Xc^−; assay: Cystine-induced glutamate release assay; type: cell-based; design: endogenous in cells; host or cells: H4 cells; conditions: H4 cells, sodium-free HEPES buffer, 50 μM L-Cystine, 2 hours, Amplex Red glutamate readout; read-out: pIC50 Cystine-induced glutamate release assay (converted)
Outline: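 IC50 (reported as pIC50) normalized to DMSO 1% and Erastin 50 μM controls, from Amplex Red fluorescence of glutamate exported into supernatant. H4 cells were washed into sodium-free buffer to exclude EAAT transport, then given compound with 50 μM L-cystine for 2 h in the incubator.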

Row | IC50 (system Xc^− [1]) [nM] | IC50 (system Xc^− [2]) [nM] | SMILES
1 | 39.8 to 100 | 39.8 to 100 | Cc1cc2c(c(Cl)n1)-c1ccnn1CC(=O)N2CC(=O)Nc1ccc(C(F)(F)F)cc1 [#100, 2-(14-chloro-12-methyl-8-oxo-5,6,9,13-tetrazatricyclo[8.4.0.0^2,6]tetradeca-1(14),2,4,10,12-pentaen-9-yl)-N-[4-(trifluoromethyl)phenyl]acetamide]
2 | < 15.8 | 15.8 to 39.8 | Cc1cc2c(c(F)n1)-c1cccnc1C(F)C(=O)N2CC(=O)Nc1ccc(C(F)(F)F)cc1 (stereo not drawn) [#101, 2-(3,10-difluoro-5-methyl-9-oxo-4,8,12-triazatricyclo[9.4.0.0^2,7]pentadeca-1(11),2(7),3,5,12,14-hexaen-8-yl)-N-[4-(trifluoromethyl)phenyl]acetamide]
3 | 39.8 to 100 | 100 to 501 | Cc1cc2c(c(F)n1)-c1cccc(=O)n1CC(=O)N2CC(=O)Nc1ccc(C(F)(F)F)cc1 [#102, 2-(3-fluoro-5-methyl-9,12-dioxo-4,8,11-triazatricyclo[9.4.0.0^2,7]pentadeca-1(15),2(7),3,5,13-pentaen-8-yl)-N-[4-(trifluoromethyl)phenyl]acetamide]
4 | 100 to 501 | 100 to 501 | Cc1cc2c(c(N)n1)-c1cccnc1CC(=O)N2CC(=O)Nc1ccc(C(F)(F)F)cc1 [#103, 2-(3-amino-5-methyl-9-oxo-4,8,12-triazatricyclo[9.4.0.0^2,7]pentadeca-1(11),2(7),3,5,12,14-hexaen-8-yl)-N-[4-(trifluoromethyl)phenyl]acetamide]
5 | 39.8 to 100 | 39.8 to 100 | COc1nc(C)cc2c1-c1cc(C)nn1CC(=O)N2CC(=O)Nc1ccc(C(F)(F)F)cc1 [#104, 2-(14-methoxy-4,12-dimethyl-8-oxo-5,6,9,13-tetrazatricyclo[8.4.0.0^2,6]tetradeca-1(14),2,4,10,12-pentaen-9-yl)-N-[4-(trifluoromethyl)phenyl]acetamide]
6 | 39.8 to 100 | 39.8 to 100 | Cc1cc2c(c(Cl)n1)-c1cc(C)nn1CC(=O)N2CC(=O)Nc1ccc(C(F)(F)F)cc1 [#105, 2-(14-chloro-4,12-dimethyl-8-oxo-5,6,9,13-tetrazatricyclo[8.4.0.0^2,6]tetradeca-1(14),2,4,10,12-pentaen-9-yl)-N-[4-(trifluoromethyl)phenyl]acetamide]
7 | 100 to 501 | 39.8 to 100 | Cc1cc2c(c(F)n1)-c1cc(C)nn1CC(=O)N2CC(=O)Nc1ccc(C(F)(F)F)cc1 [#106, 2-(14-fluoro-4,12-dimethyl-8-oxo-5,6,9,13-tetrazatricyclo[8.4.0.0^2,6]tetradeca-1(10),2,4,11,13-pentaen-9-yl)-N-[4-(trifluoromethyl)phenyl]acetamide]
8 | < 15.8 | 15.8 to 39.8 | COC1C(=O)N(CC(=O)Nc2ccc(C(F)(F)F)cc2)c2cc(C)nc(Cl)c2-c2ccccc21 (stereo not drawn) [#107, 2-(1-chloro-7-methoxy-3-methyl-6-oxo-7H-pyrido[3,4-a][3]benzazepin-5-yl)-N-[4-(trifluoromethyl)phenyl]acetamide]
9 | < 15.8 | 39.8 to 100 | COc1cc2c(c(OC)n1)-c1cccnc1CC(=O)N2CC(=O)Nc1ccc(C(F)(F)F)cc1 [#108, 2-(3,5-dimethoxy-9-oxo-4,8,12-triazatricyclo[9.4.0.0^2,7]pentadeca-1(11),2,4,6,12,14-hexaen-8-yl)-N-[4-(trifluoromethyl)phenyl]acetamide]
10 | 15.8 to 39.8 | 39.8 to 100 | COc1nc2c(cc1C)N(CC(=O)Nc1ccc(C(F)(F)F)cc1)C(=O)C(C)c1ncccc1-2 (stereo not drawn) [#109, 2-(4-methoxy-5,10-dimethyl-9-oxo-3,8,12-triazatricyclo[9.4.0.0^2,7]pentadeca-1(11),2,4,6,12,14-hexaen-8-yl)-N-[4-(trifluoromethyl)phenyl]acetamide]
11 | 39.8 to 100 | 100 to 501 | Cc1cc2c(c(F)n1)-c1ccnnc1CC(=O)N2CC(=O)Nc1ccc(C(F)(F)F)cc1 [#110, 2-(3-fluoro-5-methyl-9-oxo-4,8,12,13-tetrazatricyclo[9.4.0.0^2,7]pentadeca-1(11),2,4,6,12,14-hexaen-8-yl)-N-[4-(trifluoromethyl)phenyl]acetamide]
12 | 39.8 to 100 | 100 to 501 | Cc1cc2c(c(F)n1)-c1ccnn1C(C)C(=O)N2CC(=O)Nc1ccc(C(F)(F)F)cc1 (stereo not drawn) [#111, 2-(14-fluoro-7,12-dimethyl-8-oxo-5,6,9,13-tetrazatricyclo[8.4.0.0^2,6]tetradeca-1(10),2,4,11,13-pentaen-9-yl)-N-[4-(trifluoromethyl)phenyl]acetamide]
13 | < 15.8 | 39.8 to 100 | Cc1cc2c(c(F)n1)-c1cncnc1C(C)C(=O)N2CC(=O)Nc1ccc(C(F)(F)F)cc1 (stereo not drawn) [#112, 2-(15-fluoro-8,13-dimethyl-9-oxo-4,6,10,14-tetrazatricyclo[9.4.0.0^2,7]pentadeca-1(15),2(7),3,5,11,13-hexaen-10-yl)-N-[4-(trifluoromethyl)phenyl]acetamide]
14 | < 15.8 | 39.8 to 100 | COc1nc(F)cc2c1-c1cccnc1CC(=O)N2CC(=O)Nc1ccc(C(F)(F)F)cc1 [#113, 2-(5-fluoro-3-methoxy-9-oxo-4,8,12-triazatricyclo[9.4.0.0^2,7]pentadeca-1(11),2,4,6,12,14-hexaen-8-yl)-N-[4-(trifluoromethyl)phenyl]acetamide]
15 | < 15.8 | 15.8 to 39.8 | Cc1cc2c(c(Cl)n1)-c1cccnc1C(C)C(=O)N2CC(=O)Nc1ccc(C(F)(F)F)cc1 (stereo not drawn) [#114, 2-(3-chloro-5,10-dimethyl-9-oxo-4,8,12-triazatricyclo[9.4.0.0^2,7]pentadeca-1(11),2,4,6,12,14-hexaen-8-yl)-N-[4-(trifluoromethyl)phenyl]acetamide]
16 | 39.8 to 100 | 100 to 501 | Cc1cc2c(c(Cl)n1)-c1cccnc1C(C)C(=O)N2CC(=O)Nc1ccc(C#N)cc1 (stereo not drawn) [#115, 2-(3-chloro-5,10-dimethyl-9-oxo-4,8,12-triazatricyclo[9.4.0.0^2,7]pentadeca-1(11),2,4,6,12,14-hexaen-8-yl)-N-(4-cyanophenyl)acetamide]
17 | 39.8 to 100 | 100 to 501 | CC(=O)N(C)c1nc2c(s1)-c1ccccc1CC(=O)N2CC(=O)Nc1ccc(C(F)(F)F)cc1 [#118, 2-[2-[acetyl(methyl)amino]-5-oxo-6H-thiazolo[4,5-d][3]benzazepin-4-yl]-N-[4-(trifluoromethyl)phenyl]acetamide]
18 | 15.8 to 39.8 | 15.8 to 39.8 | Cc1cc2c(n(C)c1=O)-c1cccnc1C(C)C(=O)N2CC(=O)Nc1ccc(C(F)(F)F)cc1 (stereo not drawn) [#119, N-[4-(trifluoromethyl)phenyl]-2-(3,5,10-trimethyl-4,9-dioxo-3,8,12-triazatricyclo[9.4.0.0^2,7]pentadeca-1(11),2(7),5,12,14-pentaen-8-yl)acetamide]
19 | < 15.8 | 15.8 to 39.8 | Cc1ccc(NC(=O)CN2C(=O)C(C)c3ccccc3-c3c2cc(C)c(=O)n3C)cc1F (stereo not drawn) [#120, N-(3-fluoro-4-methyl-phenyl)-2-(1,3,7-trimethyl-2,6-dioxo-7H-pyrido[3,2-d][3]benzazepin-5-yl)acetamide]
20 | 39.8 to 100 | 100 to 501 | COCC1C(=O)N(CC(=O)Nc2ccc(C(F)(F)F)cc2)c2cc(C)nc(Cl)c2-c2ccccc21 (stereo not drawn) [#122, 2-[1-chloro-7-(methoxymethyl)-3-methyl-6-oxo-7H-pyrido[3,4-a][3]benzazepin-5-yl]-N-[4-(trifluoromethyl)phenyl]acetamide]
21 | 39.8 to 100 | 100 to 501 | Cc1cc2c(c(F)n1)-c1c[nH]nc1CC(=O)N2CC(=O)Nc1ccc(C(F)(F)F)cc1 [#123, 2-(14-fluoro-12-methyl-8-oxo-4,5,9,13-tetrazatricyclo[8.4.0.0^2,6]tetradeca-1(10),2,5,11,13-pentaen-9-yl)-N-[4-(trifluoromethyl)phenyl]acetamide]
